From patent publication US20250177392A1, “BROAD SPECTRUM INHIBITORS OF CYTOMEGALOVIRUS” (MICROBIOTIX, INC., priority 2022, published 2025)
pIC50: −log10 of the molar value.

Key:
[1] = Cytotoxicity (CC50) against Hela cells for 3 d; type: cell-based; conditions: human
[2] = Maximum solubility in water by nephlometry; type: physicochemical; conditions: Maximum solubility in water determined by nephlometry
[3] = Murine liver microsome stability; type: in vitro ADME; conditions: % remaining after 30 min at 37° C. in the presence of NADPH
[4] = test system: CMV strains AD169, TB40/E^Flag-YFP, Towne, and TR; experiment: CMV infection assay, panel of strains in fibroblasts; type: cell-based, Human cytomegalovirus; conditions: Human betaherpesvirus 5, AD169, Fibroblast, read-out: IC50 values ranging
Procedure: HCMV strains AD169 (A), TB40/E Flag YFP (B), Towne (C and G), TR (D and F), Merlin (E), and TB40/E (H) infection of NHDF cells pre-treated with DMSO and 0, 1, 5, or 20 μM MBX-4992 or MBXC-4336, respectively, were assessed at 24 hpi based on IE1 expression by anti-IE1 immunostain. TB40/E (I) (MOI 0.25) and AD169^R (J) (MOI 0.25) infection of HTR-svNeo cells treated with DMSO and 0, 1, 5, or 20 μM MBX-4992 were assessed at 24 hpi based on IE1 expression by anti-IE1 immunostain. The % infection was determined using DMSO-treated as 100% infection. The error bars represent values in triplicate. Statistical tests were performed using ordinary one-way ANOVA with multiple comparisons to DMSO treated cells as a control and a Dunnett's post-test *, p<0.05; **, p<0.01; ****, p<0.0001.
Fibroblasts and ARPE-19 cells (10^4) were plated in 96-well plates (Greiner, Monroe, NC). […] At 18 hours post infection (hpi) cells were stained using a rabbit anti-IE1 antibody followed by an anti-rabbit Alexa 647 and measured using a Celigo Cytometer (Parsons et al., Antiviral Res., 193:105124 (2021); Stein et al., Nat. Commun., 10:2699 (2019)). Using the DMSO treated cells as 100% infection, the percent infection of the NAPA compound-treated cells was determined. […]

HSV-1 E-377 = experiment: Herpes virus panel neutralization, HSV-1; type: cell-based, Herpes simplex virus 1
Procedure: (§1) To determine the specificity of MBX-4992, additional neutralization experiments were conducted using a panel of herpes viruses performed in the presence of MBX-4992. […] Collectively, the antiviral activity of MBX-4992 is equivalent to that of GCV indicating specific inhibition of CMV replication.

EBV Akata = experiment: Herpes virus panel neutralization, EBV; type: cell-based, Epstein-Barrvirus
Procedure: as §1

HSV-2 G = experiment: Herpes virus panel neutralization, HSV-2; type: cell-based, Herpes simplex virus 2
Procedure: as §1

HCMV AD169 = experiment: Herpes virus panel neutralization, HCMV AD169; type: cell-based, Human cytomegalovirus
Procedure: as §1

GpCMV 22122 = experiment: Herpes virus panel neutralization, GpCMV; type: cell-based, Guinea pig cytomegalovirus
Procedure: as §1

AD169^R [5] = experiment: Virus pre-incubation / washout study; type: cell-based, Human cytomegalovirus; conditions: virus pre-incubated, compound washed out; MBX-4992 10 μM, heparin 50 μg/ml
Procedure: (B) Based on the schematic, AD169^R (MOI 0.2) was pre-incubated with DMSO, MBX-4992, or heparin for one hour before being added to NHDF cells. Virus/compound mix was washed out after 30 minutes as indicated and either unchanged or replaced with media containing DMSO, MBX-4992, or heparin. Virus infection was quantified at 24 hpi GFP fluorescence. Percent infection was normalized to untreated cells.
NHDF cells (10^4) plated overnight in a 96-well plate were incubated at 4° C. for 30 minutes with AD169^R CMV virus pretreated with MBX-4992 (10 μM), Heparin (50 μg/mL) or DMSO for 1 hour at room temperature (in triplicate). For 2/3rd of the samples, media was aspirated and half of the wells received DMSO media, regardless of which drug the virus was exposed to, or MBX-4992 (10 μM), or Heparin (50 μg/mL) overnight. At 18 hpi, the cells were fixed with 4% paraformaldehyde, stained with a rabbit anti-IE1 antibody followed by an anti-rabbit Alexa 647, and analyzed using the Celigo cytometer. The DMSO condition that was not aspirated post binding was set as 100% infection.
To further characterize the mechanism of action, pre-incubation/washout studies were performed using AD169^R and MBX-4992. […] At 18 hpi, cells were immunostained with an anti-IE1 antibody as a readout for infection and quantified using a Celigo cytometer. […]

AD169^R [6] = experiment: Generation of infectious virions (supernatant infectious dose); type: cell-based, Human cytomegalovirus; conditions: MRC5 fibroblasts and ARPE-19 cells, MOI 0.5, 1-20 μM for 5 days
Procedure: FIGS. 13A and B are graphs showing that MBX-4992 limits the generation of infectious virions in fibroblasts and epithelial cells. MRC5 and ARPE-19 cells infected with AD169^R (MOI 0.5) were treated with DMSO, MBX-4992 (1, 5, 10, and 20 μM), and ganciclovir (5 μM) for 5 days, washed, and replaced with media for 3 days. The supernatant of MRC5 treated-cells (A) and ARPE-19-treated (B) cells was used to infect MRC5 cells. Virus infection was analyzed 24 hpi using GFP fluorescent signal as the readout with a Celigo cytometer. The viral infectious dose (IU/ml) was determined from each condition. The error bars are based on differences of infectious dose from 5 samples. Statistical tests were performed using ordinary one-way ANOVA with multiple comparisons to DMSO treated cells as a control and a Dunnett's post-test ****, p<0.0001.

Cc1nc(Nc2ccc(NC(=O)c3ccco3)cc2)cc(N2CCCC2)n1 [MBX-4992]
CC50 at 3 d [1]: > 100 µM | Sol [2]: high solubility | solubility kinetic ([2]; kinetic from dmso stock): > 200 µM | MLMS [3]: 49% | pIC50 [4]: 5.10 to 6.30 | SI (HSV-1 E-377): <2 | pIC50 (HSV-1 E-377; Human alphaherpesvirus 1): < 4.52 | SI (EBV Akata): >3 | pIC50 (EBV Akata; human gammaherpesvirus 4): 4.51 | SI (HSV-2 G): 1 | pIC50 (HSV-2 G; Human alphaherpesvirus 2): < 3.82 | SI (HCMV AD169; HCMV AD169): >88 | pIC50 (HCMV AD169; Human betaherpesvirus 5, AD169): 5.77 | SI (GpCMV 22122): <4 | pIC50 (GpCMV 22122; Caviid betaherpesvirus 2): < 4.52 | decrease of infection after washing out (AD169^R [5]): ~25% | generation of infectious virions (AD169^R [6]): significantly decreased generation of infectious AD169^R virions
